How the values were obtained:
Assay in all cases: FACE gel glycosylation assay
Format in all cases: biochemical
[1] = biological target: T1, CHSY1-CHPF2 complex (Homo sapiens, UniProt Q86X52); conditions: acceptor TAMRA-labelled Penta-CSF1 glycopeptide, co-donor UDP-GalNAc; Mn2+ and Mg2+, pH 6.5, 30 C
T1 construct: secreted luminal part of both chains (TM helix removed), HEK Freestyle 293-F; N-terminal SUMO, His6 cut with 3C; C-terminal Avi (CHSY1), 3C site and twin-Strep (CHPF2); heterodimer, expected 169 kDa; with Chondroitin sulfate glucuronyltransferase
T1 sequence (Q86X52 68-802): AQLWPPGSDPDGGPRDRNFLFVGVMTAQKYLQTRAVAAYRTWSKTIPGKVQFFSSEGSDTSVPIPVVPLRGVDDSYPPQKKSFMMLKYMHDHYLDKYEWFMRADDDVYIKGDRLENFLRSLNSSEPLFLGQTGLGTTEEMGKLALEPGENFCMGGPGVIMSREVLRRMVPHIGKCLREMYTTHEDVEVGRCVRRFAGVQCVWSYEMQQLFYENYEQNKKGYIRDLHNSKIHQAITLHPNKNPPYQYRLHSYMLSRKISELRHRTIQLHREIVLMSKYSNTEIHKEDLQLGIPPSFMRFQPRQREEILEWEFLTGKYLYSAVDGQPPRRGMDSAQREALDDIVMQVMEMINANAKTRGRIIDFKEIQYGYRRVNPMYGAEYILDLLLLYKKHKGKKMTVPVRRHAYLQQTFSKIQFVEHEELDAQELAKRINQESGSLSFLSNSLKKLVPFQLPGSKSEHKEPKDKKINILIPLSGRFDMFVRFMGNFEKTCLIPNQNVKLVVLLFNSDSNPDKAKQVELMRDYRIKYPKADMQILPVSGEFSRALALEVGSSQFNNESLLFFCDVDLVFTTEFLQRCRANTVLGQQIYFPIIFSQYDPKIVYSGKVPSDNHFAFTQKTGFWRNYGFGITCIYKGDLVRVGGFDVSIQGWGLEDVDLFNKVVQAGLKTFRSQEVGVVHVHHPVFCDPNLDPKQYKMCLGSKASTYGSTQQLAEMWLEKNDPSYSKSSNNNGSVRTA
T1 sequence (Q9P2E5 57-772 partner): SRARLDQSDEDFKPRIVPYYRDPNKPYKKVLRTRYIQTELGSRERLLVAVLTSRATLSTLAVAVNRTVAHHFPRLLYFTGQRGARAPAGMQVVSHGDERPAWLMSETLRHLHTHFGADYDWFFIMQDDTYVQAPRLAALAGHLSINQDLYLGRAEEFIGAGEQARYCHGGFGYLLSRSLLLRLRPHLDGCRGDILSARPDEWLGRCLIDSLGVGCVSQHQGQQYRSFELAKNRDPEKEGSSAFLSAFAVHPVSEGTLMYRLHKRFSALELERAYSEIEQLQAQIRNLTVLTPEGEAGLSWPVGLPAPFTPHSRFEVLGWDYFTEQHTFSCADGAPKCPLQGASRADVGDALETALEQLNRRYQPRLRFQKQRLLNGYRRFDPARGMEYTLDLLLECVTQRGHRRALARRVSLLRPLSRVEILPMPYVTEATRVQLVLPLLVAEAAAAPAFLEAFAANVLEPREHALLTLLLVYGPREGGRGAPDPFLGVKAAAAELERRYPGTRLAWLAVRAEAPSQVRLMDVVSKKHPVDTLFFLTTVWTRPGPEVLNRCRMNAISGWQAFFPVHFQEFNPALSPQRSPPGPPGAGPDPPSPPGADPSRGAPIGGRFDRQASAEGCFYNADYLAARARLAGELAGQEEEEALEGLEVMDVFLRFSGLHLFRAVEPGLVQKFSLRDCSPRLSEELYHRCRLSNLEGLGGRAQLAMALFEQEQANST

[2] = biological target: T2, CHSY3-CHPF2 complex (Homo sapiens, UniProt Q70JA7); conditions: acceptor TAMRA-labelled Penta-CSF1 glycopeptide, co-donor UDP-GalNAc; Mn2+ and Mg2+, pH 6.5, 30 C
T2 construct: secreted luminal part of both chains (TM helix removed), HEK Freestyle 293-F; N-terminal SUMO, His6 cut with 3C; C-terminal Avi (CHSY3), 3C site and twin-Strep (CHPF2); heterodimer, expected 167 kDa; with Chondroitin sulfate glucuronyltransferase
T2 sequence (Q70JA7 157-882): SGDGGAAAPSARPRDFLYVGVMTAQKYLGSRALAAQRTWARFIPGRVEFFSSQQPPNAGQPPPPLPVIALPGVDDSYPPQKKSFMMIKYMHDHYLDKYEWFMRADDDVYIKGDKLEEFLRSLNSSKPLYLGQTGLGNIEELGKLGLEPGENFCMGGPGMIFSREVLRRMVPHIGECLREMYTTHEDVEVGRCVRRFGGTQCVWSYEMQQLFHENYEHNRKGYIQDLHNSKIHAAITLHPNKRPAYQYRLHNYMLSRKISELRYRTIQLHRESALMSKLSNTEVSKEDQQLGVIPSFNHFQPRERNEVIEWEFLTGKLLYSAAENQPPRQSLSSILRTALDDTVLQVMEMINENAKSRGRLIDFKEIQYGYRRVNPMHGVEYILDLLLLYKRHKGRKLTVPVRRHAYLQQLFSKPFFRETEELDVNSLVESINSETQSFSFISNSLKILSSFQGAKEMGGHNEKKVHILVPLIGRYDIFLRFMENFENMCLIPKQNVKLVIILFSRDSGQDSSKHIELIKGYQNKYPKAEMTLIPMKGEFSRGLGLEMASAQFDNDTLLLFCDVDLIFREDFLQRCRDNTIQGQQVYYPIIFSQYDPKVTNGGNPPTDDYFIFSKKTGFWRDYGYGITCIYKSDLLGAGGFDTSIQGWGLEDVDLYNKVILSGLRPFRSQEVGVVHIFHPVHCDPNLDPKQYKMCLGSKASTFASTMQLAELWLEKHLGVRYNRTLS
T2 sequence (Q9P2E5 57-772 partner): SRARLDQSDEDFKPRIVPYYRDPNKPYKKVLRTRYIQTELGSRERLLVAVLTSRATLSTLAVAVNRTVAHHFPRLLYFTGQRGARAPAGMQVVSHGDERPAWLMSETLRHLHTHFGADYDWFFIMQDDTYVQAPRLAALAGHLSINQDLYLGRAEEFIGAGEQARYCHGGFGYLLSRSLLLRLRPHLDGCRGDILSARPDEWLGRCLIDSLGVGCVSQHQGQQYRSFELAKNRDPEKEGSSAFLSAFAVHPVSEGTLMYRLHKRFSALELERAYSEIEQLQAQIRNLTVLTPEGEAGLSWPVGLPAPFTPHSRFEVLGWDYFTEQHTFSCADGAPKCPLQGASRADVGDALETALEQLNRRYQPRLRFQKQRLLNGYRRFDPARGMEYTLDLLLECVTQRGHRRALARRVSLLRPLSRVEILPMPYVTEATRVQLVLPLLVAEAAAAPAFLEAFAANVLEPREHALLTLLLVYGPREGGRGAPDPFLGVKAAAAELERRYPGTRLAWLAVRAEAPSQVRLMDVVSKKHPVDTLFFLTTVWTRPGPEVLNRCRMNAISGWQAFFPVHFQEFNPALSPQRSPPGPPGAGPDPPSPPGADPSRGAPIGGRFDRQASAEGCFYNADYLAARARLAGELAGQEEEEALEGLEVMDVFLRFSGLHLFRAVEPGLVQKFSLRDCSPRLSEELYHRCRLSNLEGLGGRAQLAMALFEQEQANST

[3] = biological target: T3, CHSY1-CHPF complex (Homo sapiens, UniProt Q86X52); conditions: acceptor TAMRA-labelled Penta-CSF1 glycopeptide, co-donor UDP-GalNAc; Mn2+ and Mg2+, pH 6.5, 30 C
T3 construct: secreted luminal part of both chains (TM helix removed), HEK Freestyle 293-F; N-terminal SUMO, His6 cut with 3C; C-terminal Avi (CHSY1), 3C site and twin-Strep (CHPF); heterodimer, expected 167 kDa; with Chondroitin sulfate synthase 2
T3 sequence (Q86X52 68-802): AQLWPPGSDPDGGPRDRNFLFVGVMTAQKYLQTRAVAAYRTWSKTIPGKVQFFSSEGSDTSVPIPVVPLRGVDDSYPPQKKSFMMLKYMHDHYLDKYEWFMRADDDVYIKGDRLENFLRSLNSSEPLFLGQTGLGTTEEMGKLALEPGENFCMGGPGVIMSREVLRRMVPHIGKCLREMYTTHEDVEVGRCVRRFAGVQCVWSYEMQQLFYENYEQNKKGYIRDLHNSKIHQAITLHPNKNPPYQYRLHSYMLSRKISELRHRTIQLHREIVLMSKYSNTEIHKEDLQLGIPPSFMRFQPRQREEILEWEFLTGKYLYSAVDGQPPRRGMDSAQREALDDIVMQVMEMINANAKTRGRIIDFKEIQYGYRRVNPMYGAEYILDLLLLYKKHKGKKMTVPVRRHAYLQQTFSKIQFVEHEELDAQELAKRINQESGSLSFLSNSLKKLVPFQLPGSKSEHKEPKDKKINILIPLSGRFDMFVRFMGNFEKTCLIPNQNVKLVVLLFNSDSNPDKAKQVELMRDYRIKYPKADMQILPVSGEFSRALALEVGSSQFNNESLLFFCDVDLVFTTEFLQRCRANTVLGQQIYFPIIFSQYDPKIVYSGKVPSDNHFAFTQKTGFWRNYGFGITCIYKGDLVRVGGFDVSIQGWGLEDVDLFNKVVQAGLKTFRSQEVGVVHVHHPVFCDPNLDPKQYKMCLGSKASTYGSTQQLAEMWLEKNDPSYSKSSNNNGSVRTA
T3 sequence (Q8IZ52 81-775 partner): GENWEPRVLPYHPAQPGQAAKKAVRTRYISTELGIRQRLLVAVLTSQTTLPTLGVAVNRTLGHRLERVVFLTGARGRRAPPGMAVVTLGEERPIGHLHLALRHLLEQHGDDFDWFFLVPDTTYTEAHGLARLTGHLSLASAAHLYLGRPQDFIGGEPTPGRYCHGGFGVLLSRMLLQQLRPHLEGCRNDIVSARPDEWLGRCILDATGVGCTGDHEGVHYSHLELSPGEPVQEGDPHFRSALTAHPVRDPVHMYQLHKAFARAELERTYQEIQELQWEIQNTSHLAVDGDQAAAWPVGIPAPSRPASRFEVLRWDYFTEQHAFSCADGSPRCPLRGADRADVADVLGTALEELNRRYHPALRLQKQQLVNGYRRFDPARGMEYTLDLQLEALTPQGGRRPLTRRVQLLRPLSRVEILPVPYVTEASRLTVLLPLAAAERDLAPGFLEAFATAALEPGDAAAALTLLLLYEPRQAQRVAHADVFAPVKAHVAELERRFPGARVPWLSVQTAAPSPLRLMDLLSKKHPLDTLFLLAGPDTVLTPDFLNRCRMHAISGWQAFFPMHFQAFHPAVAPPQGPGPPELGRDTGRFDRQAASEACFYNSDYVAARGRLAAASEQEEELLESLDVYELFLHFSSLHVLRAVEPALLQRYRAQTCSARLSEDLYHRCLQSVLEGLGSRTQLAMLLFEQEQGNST

[4] = biological target: T4, CHSY3-CHPF complex (Homo sapiens, UniProt Q70JA7); conditions: acceptor TAMRA-labelled Penta-CSF1 glycopeptide, co-donor UDP-GalNAc; Mn2+ and Mg2+, pH 6.5, 30 C; N-terminal GT31 site of CHSY3
T4 construct: secreted luminal part of both chains (TM helix removed), HEK Freestyle 293-F; N-terminal RPTP sigma signal, SUMO, His6 cut with 3C; C-terminal Avi (CHSY3), 3C site and twin-Strep (CHPF); heterodimer, expected 165 kDa; with Chondroitin sulfate synthase 2
T4 sequence (Q70JA7 157-882): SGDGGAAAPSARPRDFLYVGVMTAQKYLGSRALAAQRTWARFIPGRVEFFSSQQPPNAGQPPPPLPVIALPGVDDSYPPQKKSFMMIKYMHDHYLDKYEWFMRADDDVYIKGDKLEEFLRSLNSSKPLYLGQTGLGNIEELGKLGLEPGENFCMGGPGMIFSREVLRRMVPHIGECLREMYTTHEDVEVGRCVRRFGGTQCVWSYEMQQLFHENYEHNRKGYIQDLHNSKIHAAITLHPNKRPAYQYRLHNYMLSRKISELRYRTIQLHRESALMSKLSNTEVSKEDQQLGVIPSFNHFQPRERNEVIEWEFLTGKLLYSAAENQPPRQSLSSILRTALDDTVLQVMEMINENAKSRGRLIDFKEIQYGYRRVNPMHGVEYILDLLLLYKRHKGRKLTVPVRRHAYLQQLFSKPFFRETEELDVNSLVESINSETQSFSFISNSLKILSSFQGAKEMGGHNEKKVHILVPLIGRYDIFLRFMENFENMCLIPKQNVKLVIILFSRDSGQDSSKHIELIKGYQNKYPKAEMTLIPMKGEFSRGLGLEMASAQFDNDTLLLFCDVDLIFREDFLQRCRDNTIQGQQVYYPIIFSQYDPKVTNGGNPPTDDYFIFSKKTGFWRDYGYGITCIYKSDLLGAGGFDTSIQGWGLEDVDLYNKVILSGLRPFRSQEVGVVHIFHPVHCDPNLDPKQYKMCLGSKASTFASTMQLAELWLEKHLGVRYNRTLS
T4 sequence (Q8IZ52 81-775 partner): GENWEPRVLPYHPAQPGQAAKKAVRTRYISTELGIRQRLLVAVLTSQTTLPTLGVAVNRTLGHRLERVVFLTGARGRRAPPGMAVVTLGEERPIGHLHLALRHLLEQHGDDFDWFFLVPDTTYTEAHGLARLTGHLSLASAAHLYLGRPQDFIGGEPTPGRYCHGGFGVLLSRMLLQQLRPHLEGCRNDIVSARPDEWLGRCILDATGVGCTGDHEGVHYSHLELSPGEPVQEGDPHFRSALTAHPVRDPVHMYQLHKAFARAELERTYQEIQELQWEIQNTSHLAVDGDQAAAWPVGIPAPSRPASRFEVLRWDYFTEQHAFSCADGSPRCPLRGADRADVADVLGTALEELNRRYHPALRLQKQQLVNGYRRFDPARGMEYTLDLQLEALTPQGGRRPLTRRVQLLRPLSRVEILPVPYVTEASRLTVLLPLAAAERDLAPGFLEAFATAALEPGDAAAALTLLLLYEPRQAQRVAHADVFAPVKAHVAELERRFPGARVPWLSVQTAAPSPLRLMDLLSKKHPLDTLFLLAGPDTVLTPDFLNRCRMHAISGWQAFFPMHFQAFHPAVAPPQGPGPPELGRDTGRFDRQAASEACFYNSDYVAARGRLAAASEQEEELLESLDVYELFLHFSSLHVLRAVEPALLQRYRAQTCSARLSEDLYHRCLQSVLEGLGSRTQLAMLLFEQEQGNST

O=C(O)[C@H]1O[C@H](OP(=O)(O)OP(=O)(O)OC[C@H]2O[C@@H](n3ccc(=O)[nH]c3=O)[C@H](O)[C@@H]2O)[C@H](O)[C@@H](O)[C@@H]1O [UDP-GlcA]
FACE gel glycosylation assay [1]: All four purified CS polymerase complexes were able to elongate the CS chain | FACE gel glycosylation assay [2]: All four purified CS polymerase complexes were able to elongate the CS chain | FACE gel glycosylation assay [3]: All four purified CS polymerase complexes were able to elongate the CS chain | FACE gel glycosylation assay [4]: wild-type CHSY3-CHPF complex efficiently elongated the Penta-CSF1 and Hexa-CSF1 substrates into high molecular weight chains

— publication PMC12748766, “Structural basis for human chondroitin sulfate chain polymerization” (Nature Communications, 2025)
